For one experiment, the system named is Lipoxygenase. The experiment can be described thus: Ex-Vivo Measurement of Lipoxygenase Inhibition in Orally Dosed Rats (LTB4 in A23187-stimulated blood). The arrangement: species or system Male Sprague Dawley rats. Particulars: ex vivo rat, p.o. On the procedure:
2. […] After an interval of 3 or 6 hours, the rats were anesthetized with metofane (n =4/group) and blood collected in heparinized tubes. White blood cell counts and differentials were made. One ml of blood from each animal was placed in a 5 ml plastic tube in a shaker bath at 37° C. A23187 at a final concentration of 10 μM was added to the blood and the blood vortexed and incubated for 15 min at 37° C. with gentle shaking. Incubation was terminated by vortexing sample and centrifuging immediately at 1200 xG for 15 min at 4° C. The plasma was transferred to 15 ml plastic tubes each containing 8 ml of methanol to precipitate protein followed by vortexing. The samples were stored at -70° C. overnight and the next day the samples were centrifuged at 800 xG for 15 min to pellet the precipitate. The samples were dried in a Savant SpeedVac Concentrator Model SVC 200H and reconstituted to the original volume with cold RIA or ELISA buffer. The reconstituted samples were stored at -70° C. until assayed. The assay for LTB4 was perforated according to the directions of the [^3 H]RIA kit or ELISA kit (Seragen). The total metabolite level in 1 ml of blood is calculated and reported as ng/10^6 neutrophils. Significance is determined by a one-way analysis of variance with LSD comparisons to control (p<0.05).

Experiment [1] has as its system LT-dependent bronchoconstriction. In words: Inhibition of Bronchoconstriction in Guinea Pigs Induced by Exogenously Administered Antigen. The format is in vivo, Male guinea pigs. On the procedure: 4. Inhibition of Brochoconstriction in Guinea Pigs Induced by Exogenously Administered Antigen
Male guinea pigs (Charles River, Wilmington, Mass.) were sensitized 3-4 weeks prior to antigen challenge by administration of 2 i.m. injections of ovalbumin, 1 into each hind limb (35 mg total). Sensitized animals (500-600 g) were fasted overnight prior to experimentation. Conscious animals were then dosed p.o. with drug or vehicle alone (0.5% Tween 80 in H2 O) at the indicated times prior to antigen challenge, or anesthetized animals were dosed i.v. with drug or vehicle alone (DMSO) 5 min prior to antigen challenge. Animals were anesthetized by urethane (2.8 g/kg i.p.). A carotid artery and jugular vein were cannulated to allow for the monitoring of blood pressure and the administration of drugs, respectively. The trachea was then cannulated and connected to a Harvard Apparatus rodent ventilator (S. Natick, Mass.). Spontaneous respiration was abolished by the administration of succinylcholine (2.5 mg/kg i.v.). The animals were then ventilated with room air at a rate of 65 breaths per min. Airway inflation pressure was measured using a Statham pressure transducer (Gould Instruments, Cleveland, Ohio) connected to the tracheal cannula via a side-arm and recorded on a Grass Instruments recorder (Quincy, Mass.). The tidal volume (approximately 10 cc/kg) was adjusted to give a baseline inflation pressure of 8-10 cm H2 O at end inspiration. Animals were then allowed 20 min to stabilize.
Following the stabilization period, animals were given i.v. injections of pyrilamine (5 mg/kg), propranolol (0.1 mg/kg) and indomethacin (10 mg/kg) at 15, 10 and 5 min, respectively, prior to antigen challenge. This pretreatment results in an LT-dependent bronchoconstriction following antigert challenge, which was accomplished by i.v. administration of ovalbumin (10 mg/kg). Only one bronchoconstriction per animal was induced. End-inspiratory inflation pressure (in cm H2 O over baseline) was measured at 5 min post-antigen challenge. A mean value and standard error for the % inhibition of control bronchoconstriction in each drug-treated group was then calculated.

For a further experiment, the system named is LTB4 Synthesis. In words: Reverse Passive Arthus Reaction (pleurisy, LTB4 in pleural exudate). The format is in vivo, male Lewis rats. On the procedure:
3. Reverse Passive Arthus Reaction
A reverse passive Arthus reaction is induced in the pleural cavity of male Lewis rats (150°-200 g; fasted overnight prior to use) by the intravenous administration of bovine serum albumin (BSA; 4 mg/0.2 ml) followed 30 minutes later by the injection of rabbit anti-BSA (1 mg/0.2 ml; lyophilized IgG fraction; Organon Teknika, West Chester, Pa.) into the right pleural space under halothane anesthesia. Drugs or vehicle (0.5% Tween-80) control are administered orally in a volume of 1 ml/100 g body weight at 1 hour prior to the anti-BSA. Animals are sacrificed at either the time of peak eicosanoid production (i.e. 5 minutes after anti-BSA for immunoreactive TxB2, 10 minutes for immunoreactive LTB4, 20 minutes for immunoreactive LTC4) or at the time of peak neutrophil infiltration (4 hours after anti-BSA) by CO2 inhalation. The pleural cavity is then exposed, the fluid exudate removed by gentle vacuum aspiration and the volume of exudate is recorded. For the determination of cellular infiltration, the pleural cavity is rinsed with 3 ml of 0.1% EDTA in sterile saline, and the recovered wash is pooled with the exudate. Cell number is determined on a model ZBI Coulter counter. For determination of eicosanoid production, undiluted pleural exudate is microfuged and the supernatant is extracted with ethanol (8-10 times volume). Extracts are either stored at -20° C., or are evaporated to dryness under a stream of N2 and reconstituted in radioimmunoassay (RIA) buffer.
Eicosanoids are quantitated by RIA according to the procedure specified by the RIA kit manufacturer (Advanced Magnetics, Cambridge, MA). Briefly, 100 μl of ^3 H-labeled eicosanoid and 100 μl of specific antibody ,are sequentially added to 100 μl of extracted pleural exudate in BGG-phosphate buffer which contains 0.01M phosphate, 0.1% bovine gamma globulin and 0.1% sodium azide at pH 7.0. Antibody-bound eicosanoid is separated from unbound eicosanoid by the addition of 750 μl of dextran (0.4%)-coated charcoal (Norit A) containing 0.1% sodium azide. The mixture is centrifuged at 2000 RPM at 5° C. for 15 minutes to pellet the charcoal and adsorbed unbound eicosanoid. Antibody-bound labeled eicosanoid is quantitated by counting in a liquid scintillation counter, and is correlated to concentration by a standard curve.

Setting [2] is: dose 25 (mg/kg), pretreatment 3 hr.

Consider `Cc1oc(-c2ccccc2)nc1CCOc1ccc(C(C)N(O)C(N)=O)cc1` (centres unmarked) [Example 4], for which, in the experiment with Lipoxygenase (setting [2]), the “% Inhibition of LTB4” value is given as 57%. Besides, in experiment [1] (25 mg/kg aerosol), the “Bronchoconstriction % Inhibition” value came out at 51%.
On to `Cc1oc(-c2ccc(C(F)(F)F)cc2)nc1CCOc1ccc(CN(O)C(N)=O)cc1` [Example 13, 1-Hydroxy-1-[4-[2-[5-methyl-2(4-trifluoromethyl-phenyl)-oxazol-4-yl]-ethoxy]benzyl]-urea], for which, in the experiment with Lipoxygenase (dose 1 (mg/kg), pretreatment 6 hr), the “% Inhibition of LTB4” value amounted to 50%. For the same compound, the “% Inhibition LTB4 Synthesis” value in the experiment with LTB4 Synthesis (10 mg/kg p.o.) is given as 91%. Also, in experiment [1] (20 mg/kg i.v.), the “Bronchoconstriction % Inhibition” value is recorded as 23%.
For `NC(=O)N(O)Cc1ccc(OCCc2noc(-c3ccccc3)n2)cc1` [Example 21, 1-hydroxy-1-[4-[2-(5-phenyl-[1,2,4]-oxadiazol-3-yl)-ethoxy]-benzyl]-urea], the “% Inhibition of LTB4” value in the experiment on Lipoxygenase (dose 5 (mg/kg), pretreatment 6 hr) is listed as 60%. In the experiment with LTB4 Synthesis (25 mg/kg p.o.), the “% Inhibition LTB4 Synthesis” value is 19%. Moreover, the “Bronchoconstriction % Inhibition” value is 58% in experiment [1] (10 mg/kg i.v.) and 34% in experiment [1] (10 mg/kg p.o.).
As for `Cc1oc(-c2ccccc2)nc1CCOc1ccc(CN(O)C(N)=O)cc1` [Example 1], in the experiment on Lipoxygenase (setting [2]), the “% Inhibition of LTB4” value is listed as 79%. For the same compound, in the experiment with LTB4 Synthesis (25 mg/kg p.o.), the “% Inhibition LTB4 Synthesis” value worked out at 35%. The “Bronchoconstriction % Inhibition” value is on record as 66% in experiment [1] (20 mg/kg i.v.), 67% in experiment [1] (25 mg/kg aerosol) and 25% in experiment [1] (25 mg/kg p.o.).

Values taken from patent US5428048A, “Aryl-N-hydroxyureas as inhibitors of 5-lipoxygenase and anto-arteriosclerotic agents” (American Home Products Corporation, priority 1993, dated 1995).
